Assay results as given in patent US20120165310A1, “ETHER DERIVATIVES OF BICYCLIC HETEROARYLS” (NOVARTIS AG, priority 2009, published 2012).
Blank lines part the entries; values can stand above or below the molecule they belong to.

How the values were obtained:
InsR = InsR (Homo sapiens, UniProt P06213); test: Kinase activity test, parent compound vs phenol metabolite X; type: biochemical
C-Abl = C-Abl (Homo sapiens, UniProt P00519); test: as above; type: biochemical
From the text: (§1) In this tests, the parent compound, ex.102 of […] is compared with the corresponding phenol metabolite.

EphB4 = molecular target: T1, EphB4 (Homo sapiens, UniProt P54760); test: as above; type: biochemical
T1 sequence (P54760 16-987): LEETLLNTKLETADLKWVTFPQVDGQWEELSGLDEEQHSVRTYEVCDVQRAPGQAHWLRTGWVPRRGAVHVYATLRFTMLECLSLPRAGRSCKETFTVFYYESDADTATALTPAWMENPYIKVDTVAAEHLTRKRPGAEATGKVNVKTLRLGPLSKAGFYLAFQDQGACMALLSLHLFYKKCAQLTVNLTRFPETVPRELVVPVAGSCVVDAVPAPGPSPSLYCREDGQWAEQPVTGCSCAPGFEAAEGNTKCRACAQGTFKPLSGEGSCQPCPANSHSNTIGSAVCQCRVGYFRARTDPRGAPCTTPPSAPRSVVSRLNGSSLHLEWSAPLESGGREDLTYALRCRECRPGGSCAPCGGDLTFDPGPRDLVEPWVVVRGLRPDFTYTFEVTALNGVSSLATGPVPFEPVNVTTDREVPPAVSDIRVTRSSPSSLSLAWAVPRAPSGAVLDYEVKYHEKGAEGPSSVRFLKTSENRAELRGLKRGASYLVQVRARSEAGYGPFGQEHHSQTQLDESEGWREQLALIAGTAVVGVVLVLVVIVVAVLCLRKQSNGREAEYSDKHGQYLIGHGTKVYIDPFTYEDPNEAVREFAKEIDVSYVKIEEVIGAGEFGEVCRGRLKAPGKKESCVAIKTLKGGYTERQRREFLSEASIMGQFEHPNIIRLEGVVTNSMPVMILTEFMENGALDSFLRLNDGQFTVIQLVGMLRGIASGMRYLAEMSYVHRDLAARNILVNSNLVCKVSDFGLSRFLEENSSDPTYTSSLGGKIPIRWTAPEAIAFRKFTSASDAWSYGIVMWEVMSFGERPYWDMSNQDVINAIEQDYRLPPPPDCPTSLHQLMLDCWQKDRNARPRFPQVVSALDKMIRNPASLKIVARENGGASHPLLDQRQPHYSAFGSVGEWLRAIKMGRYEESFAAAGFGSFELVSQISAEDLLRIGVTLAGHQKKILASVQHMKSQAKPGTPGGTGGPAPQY
From the text: as §1

RET = RET (Homo sapiens, UniProt P07949); test: as above; type: biochemical
RET, sequence (P07949 29-1114, species assumed): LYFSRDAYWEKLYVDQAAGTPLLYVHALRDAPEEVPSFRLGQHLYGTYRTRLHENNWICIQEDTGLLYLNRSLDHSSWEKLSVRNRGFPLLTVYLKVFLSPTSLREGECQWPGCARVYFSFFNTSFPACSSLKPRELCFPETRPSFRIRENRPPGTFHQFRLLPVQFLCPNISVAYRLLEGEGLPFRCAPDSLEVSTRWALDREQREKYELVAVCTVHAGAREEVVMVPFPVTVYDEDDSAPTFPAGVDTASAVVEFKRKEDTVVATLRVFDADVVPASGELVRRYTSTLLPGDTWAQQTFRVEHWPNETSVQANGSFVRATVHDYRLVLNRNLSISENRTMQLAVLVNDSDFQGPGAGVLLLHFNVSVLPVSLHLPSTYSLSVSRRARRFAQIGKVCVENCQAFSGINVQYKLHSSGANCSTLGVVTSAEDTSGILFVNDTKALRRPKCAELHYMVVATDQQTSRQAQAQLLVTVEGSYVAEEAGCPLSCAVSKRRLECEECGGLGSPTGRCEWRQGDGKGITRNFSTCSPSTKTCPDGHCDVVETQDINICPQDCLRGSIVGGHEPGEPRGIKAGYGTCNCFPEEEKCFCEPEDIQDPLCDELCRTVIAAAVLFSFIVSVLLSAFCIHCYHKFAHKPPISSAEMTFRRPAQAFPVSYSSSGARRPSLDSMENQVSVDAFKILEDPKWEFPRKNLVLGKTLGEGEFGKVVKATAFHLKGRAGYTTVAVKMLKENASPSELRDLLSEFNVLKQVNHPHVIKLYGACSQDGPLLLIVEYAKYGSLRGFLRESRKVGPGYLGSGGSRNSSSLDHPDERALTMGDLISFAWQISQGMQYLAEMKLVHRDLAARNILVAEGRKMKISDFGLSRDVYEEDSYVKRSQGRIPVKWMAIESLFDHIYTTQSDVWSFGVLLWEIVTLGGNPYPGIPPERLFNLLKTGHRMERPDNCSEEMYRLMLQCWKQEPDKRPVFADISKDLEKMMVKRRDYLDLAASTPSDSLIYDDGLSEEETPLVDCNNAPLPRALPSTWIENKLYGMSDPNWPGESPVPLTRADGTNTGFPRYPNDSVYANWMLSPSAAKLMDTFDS
From the text: as §1

c-src = c-src (Homo sapiens, UniProt P12931); test: as above; type: biochemical
c-src, sequence (P12931 whole entry, species assumed): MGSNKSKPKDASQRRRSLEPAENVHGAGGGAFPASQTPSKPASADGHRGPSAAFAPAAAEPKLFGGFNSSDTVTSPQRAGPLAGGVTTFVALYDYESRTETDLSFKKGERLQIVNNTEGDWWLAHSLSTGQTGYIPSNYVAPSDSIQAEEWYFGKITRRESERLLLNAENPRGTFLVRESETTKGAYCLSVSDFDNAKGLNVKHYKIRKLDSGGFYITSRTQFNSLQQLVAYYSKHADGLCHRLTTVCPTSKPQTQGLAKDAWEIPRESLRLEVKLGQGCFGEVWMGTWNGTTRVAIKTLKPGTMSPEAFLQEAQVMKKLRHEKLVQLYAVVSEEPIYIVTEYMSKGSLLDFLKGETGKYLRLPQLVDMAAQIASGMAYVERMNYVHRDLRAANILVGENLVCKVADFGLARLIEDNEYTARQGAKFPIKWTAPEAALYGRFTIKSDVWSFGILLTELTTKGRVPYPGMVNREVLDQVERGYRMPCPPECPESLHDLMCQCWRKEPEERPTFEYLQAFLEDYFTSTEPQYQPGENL
From the text: as §1

IGF-1R = molecular target: T2, IGF-1R (Homo sapiens, UniProt P08069); test: Cellular IGF-1R assay: capture ELISA (MSD) of receptor phosphorylation in Hek293 cells; type: cell-based; conditions: Hek293-IGF1R cells, 1 h pre-incubation, 10 min IGF stimulation, pIGF1R capture ELISA
T2 construct: expressed in transfected cells; host or cells: Hek293 (Hek293-IGF1R)
T2 sequence (P08069 31-1367): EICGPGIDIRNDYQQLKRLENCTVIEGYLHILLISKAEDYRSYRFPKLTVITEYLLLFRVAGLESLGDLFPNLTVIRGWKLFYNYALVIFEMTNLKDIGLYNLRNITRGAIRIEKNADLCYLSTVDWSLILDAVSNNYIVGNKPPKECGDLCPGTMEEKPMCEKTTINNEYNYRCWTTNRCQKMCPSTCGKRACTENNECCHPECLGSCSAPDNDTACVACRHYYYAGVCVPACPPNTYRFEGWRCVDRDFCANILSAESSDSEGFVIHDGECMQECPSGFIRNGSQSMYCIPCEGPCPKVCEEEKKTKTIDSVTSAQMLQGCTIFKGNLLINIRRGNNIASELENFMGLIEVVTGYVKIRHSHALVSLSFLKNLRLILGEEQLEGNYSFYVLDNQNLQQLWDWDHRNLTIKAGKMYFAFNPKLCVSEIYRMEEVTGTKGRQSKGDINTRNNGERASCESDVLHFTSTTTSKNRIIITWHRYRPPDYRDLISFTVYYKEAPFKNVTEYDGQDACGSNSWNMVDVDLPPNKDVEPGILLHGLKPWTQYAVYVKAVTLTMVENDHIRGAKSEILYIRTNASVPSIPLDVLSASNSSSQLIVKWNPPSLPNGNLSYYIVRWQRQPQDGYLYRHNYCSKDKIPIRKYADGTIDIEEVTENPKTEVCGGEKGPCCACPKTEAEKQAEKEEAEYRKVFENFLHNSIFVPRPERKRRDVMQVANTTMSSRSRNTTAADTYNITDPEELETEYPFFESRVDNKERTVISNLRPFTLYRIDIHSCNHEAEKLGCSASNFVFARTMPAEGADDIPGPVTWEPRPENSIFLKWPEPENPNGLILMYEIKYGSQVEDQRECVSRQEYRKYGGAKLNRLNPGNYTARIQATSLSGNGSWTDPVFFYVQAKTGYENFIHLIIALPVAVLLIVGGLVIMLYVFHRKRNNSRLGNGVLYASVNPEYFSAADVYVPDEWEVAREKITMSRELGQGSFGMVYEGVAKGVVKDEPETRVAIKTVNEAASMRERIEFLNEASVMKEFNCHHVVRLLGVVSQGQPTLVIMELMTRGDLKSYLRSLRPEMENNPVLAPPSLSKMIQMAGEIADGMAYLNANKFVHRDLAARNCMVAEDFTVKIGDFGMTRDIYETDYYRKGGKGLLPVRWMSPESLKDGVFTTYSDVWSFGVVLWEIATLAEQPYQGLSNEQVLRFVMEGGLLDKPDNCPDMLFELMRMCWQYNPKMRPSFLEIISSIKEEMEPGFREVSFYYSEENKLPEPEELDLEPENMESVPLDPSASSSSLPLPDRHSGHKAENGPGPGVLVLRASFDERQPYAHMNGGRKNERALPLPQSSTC
Procedure, shortened: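 IC50 from 4-parameter fit of IGF1R phosphorylation, normalised to IGF-stimulated and unstimulated controls, measured by MSD capture ELISA on lysates. Hek293-IGF1R cells in starvation medium got compound 1 h (top 10 μM, 3-fold steps, 0.1% DMSO) before a 10 min pulse of 1.0 ng/μL IGF.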

[1] = In vitro metabolic identification study with rat liver microsomes; type: in vitro ADME; conditions: for formation of the phenolic metabolite X / metabolic stability relative to ex.102 of WO02/092559: rat and human liver microsomes; for Relative peak area after incubation, Parent / Relative peak area after incubation, Phenol metabolite X: rat liver microsomes, 1 hour incubation, parent 5 μM
Method: (§2) In vitro metabolic identification studies with, Example 2 and Example 3 with human and rat liver microsomes are summarized in the table below in which the compounds were incubated for 1 hour with rat or human liver microsome preparations.
(§3) The metabolism of unlabelled compound was examined following in vitro incubations with liver microsomes from rat and human. The samples were analyzed by capillary-HPLC/MS^(n) and screened for potential metabolites of the compound.

[2] = In vitro metabolic identification study with human liver microsomes; type: in vitro ADME; conditions: 1 hour incubation, parent 5 μM
Method: as §2, §3

C-Abl, sequence (P00519 whole entry): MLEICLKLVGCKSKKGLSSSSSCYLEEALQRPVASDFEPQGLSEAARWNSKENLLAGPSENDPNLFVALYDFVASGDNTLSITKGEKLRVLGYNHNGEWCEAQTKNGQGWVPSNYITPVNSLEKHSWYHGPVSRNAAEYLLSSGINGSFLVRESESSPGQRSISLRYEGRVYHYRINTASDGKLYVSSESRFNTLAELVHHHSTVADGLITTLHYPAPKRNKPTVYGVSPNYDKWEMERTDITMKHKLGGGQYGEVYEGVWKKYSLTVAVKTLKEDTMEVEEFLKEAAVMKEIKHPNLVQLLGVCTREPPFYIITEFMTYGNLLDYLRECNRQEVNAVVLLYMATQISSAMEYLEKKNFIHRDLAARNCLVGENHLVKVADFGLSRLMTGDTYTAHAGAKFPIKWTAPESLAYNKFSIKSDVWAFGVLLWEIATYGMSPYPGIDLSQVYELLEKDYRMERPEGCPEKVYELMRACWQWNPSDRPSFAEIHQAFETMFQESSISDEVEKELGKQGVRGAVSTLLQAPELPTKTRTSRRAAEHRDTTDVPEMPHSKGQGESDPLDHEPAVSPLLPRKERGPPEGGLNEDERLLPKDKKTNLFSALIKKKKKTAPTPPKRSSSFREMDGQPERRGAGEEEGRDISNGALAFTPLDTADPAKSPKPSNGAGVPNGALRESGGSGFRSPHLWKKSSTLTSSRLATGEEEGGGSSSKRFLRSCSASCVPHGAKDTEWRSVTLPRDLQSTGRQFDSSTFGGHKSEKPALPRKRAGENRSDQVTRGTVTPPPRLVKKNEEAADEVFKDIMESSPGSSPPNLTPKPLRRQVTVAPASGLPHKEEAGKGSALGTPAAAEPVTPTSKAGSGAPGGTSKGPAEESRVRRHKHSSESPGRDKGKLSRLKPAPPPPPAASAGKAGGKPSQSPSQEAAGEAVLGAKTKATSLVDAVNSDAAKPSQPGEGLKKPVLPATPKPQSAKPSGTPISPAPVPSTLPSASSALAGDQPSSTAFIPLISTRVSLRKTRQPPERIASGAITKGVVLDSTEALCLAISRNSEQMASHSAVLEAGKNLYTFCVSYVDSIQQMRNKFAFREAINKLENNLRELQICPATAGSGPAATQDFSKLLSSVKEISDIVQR

Compound: Nc1ncnc2c1c(-c1cccc(O)c1)cn2[C@H]1C[C@@H](CN2CCC2)C1 [Phenol metabolite X, cis-3-[4-amino-7-(3-azetidin-1-ylmethyl-cyclobutyl)-7H-pyrrolo[2,3-d]pyrimidin-5-yl]-phenol]
- IC50 (InsR): 3800 nM
- IC50 (C-Abl): 47 nM
- IC50 (EphB4): 9 nM
- IC50 (RET): 8 nM
- IC50 (c-src): 4 nM

- IC50 (IGF-1R): 51 to 99 nM
- formation of the phenolic metabolite X [1]: no evidence of formation
- metabolic stability relative to ex.102 of WO02/092559 [1]: Greater metabolic stability
- Relative peak area after incubation, Parent [1]: 69.3%
- Relative peak area after incubation, Phenol metabolite X [1]: not detected
- Relative peak area after incubation, Parent [2]: 90.3%
- Relative peak area after incubation, Phenol metabolite X [2]: not detected
Compound: Nc1ncnc2c1c(-c1cccc(OC[C@H]3CCCCO3)c1)cn2[C@H]1C[C@@H](CN2CCC2)C1 (single isomer, unassigned) [Example 2]

- IC50 (IGF-1R): 105 to 141 nM
- formation of the phenolic metabolite X [1]: no evidence of formation
- metabolic stability relative to ex.102 of WO02/092559 [1]: Greater metabolic stability
- Relative peak area after incubation, Parent [1]: 75.8%
- Relative peak area after incubation, Phenol metabolite X [1]: not detected
- Relative peak area after incubation, Parent [2]: 81.7%
- Relative peak area after incubation, Phenol metabolite X [2]: not detected
Compound: Nc1ncnc2c1c(-c1cccc(OC[C@@H]3CCCCO3)c1)cn2[C@H]1C[C@@H](CN2CCC2)C1 (single isomer, unassigned) [Example 3]

- IC50 (IGF-1R): 339 nM
Compound: CN1CCC(N2CCC(n3cc(-c4cccc(OCC5CCC(C)(C)O5)c4)c4c(N)ncnc43)CC2)CC1 (centres unmarked) [Example 60, 5-[3-(5,5-dimethyl-tetrahydro-furan-2-ylmethoxy)-phenyl]-7-(1′-methyl-[1,4′]bipiperidinyl-4-yl)-7H-pyrrolo[2,3-d]pyrimidin-4-ylamine]

- IC50 (IGF-1R): 8 nM
Compound: NC(=O)[C@H]1CCCN1C[C@H]1C[C@@H](n2cc(-c3cccc(OCC45CCC(CC4)O5)c3)c3c(N)ncnc32)C1 [Example 75, (R)-1-(cis-3-{4-amino-5-[3-(7-oxa-bicyclo[2.2.1]hept-1-ylmethoxy)-phenyl]-pyrrolo[2,3-d]pyrimidin-7-yl}-cyclobutylmethyl)-pyrrolidine-2-carboxylic acid amide]

- IC50 (IGF-1R): 303 nM
Compound: Nc1ncnc2c1c(-c1cccc(OCC34CCC(CC3)O4)c1)cn2[C@H]1C[C@@H](N2CC3CC2CN3CCO)C1 (relative stereo) [Example 174, 2-[5-(cis-3-{4-amino-5-[3-(7-oxa-bicyclo[2.2.1]hept-1-ylmethoxy)-phenyl]-pyrrolo[2,3-d]pyrimidin-7-yl}cyclobutyl)-2,5-diaza-bicyclo[2.2.1]hept-2-yl]-ethanol]

- IC50 (IGF-1R): 241 nM
Compound: Nc1ncnc2c1c(-c1cccc(OCC34CCC(CC3)O4)c1)cn2[C@H]1CC[C@@H](n2ccnc2)CC1 [Example 138, 7-((1S,4S)-4-(1H-imidazol-1-yl)cyclohexyl)-5-(3-(7-oxabicyclo[2.2.1]heptan-1-ylmethoxy)phenyl)-7H-pyrrolo[2,3-d]pyrimidin-4-amine]

- IC50 (IGF-1R): 47 nM
Compound: NC(=O)[C@@H]1CCCN1C[C@H]1C[C@H](n2cc(-c3cccc(OCC4CCCO4)c3)c3c(N)ncnc32)C1 (stereo partly drawn) [Example 86, (S)-1-(trans-3-(4-amino-5-[3-(tetrahydro-furan-2-ylmethoxy)-phenyl]-pyrrolo[2,3-d]pyrimidin-7-yl}-cyclobutylmethyl)-pyrrolidine-2-carboxylic acid amide]

- IC50 (IGF-1R): 17 nM
Compound: Nc1ncnc2c1c(-c1cccc(OCC34CCC(CC3)O4)c1)cn2[C@H]1C[C@@H](N2CCS(=O)(=O)CC2)C1 (relative stereo) [Example 230, 7-[cis-3-(1,1-dioxo-thiomorpholin-4-yl)-cyclobutyl]-5-[3-(7-oxa-bicyclo[2.2.1]hept-1-ylmethoxy)-phenyl]-7H-pyrrolo[2,3-d]pyrimidin-4-ylamine]

- IC50 (IGF-1R): 57 nM
Compound: CCOC(=O)c1nccn1C[C@H]1C[C@@H](n2cc(-c3cccc(OCC45CCC(CC4)O5)c3)c3c(N)ncnc32)C1 [Example 180]
